Data from patent US20220117919A1, “ENHANCED BIOAVAILABILITY OF N-(2,6-BIS(1-METHYLETHYL)PHENYL)-N'-((1-(4-(DIMETHYLAMINO)-PHENYL)CYCLOPENTYL)METHYL)UREA HYDROCHLORIDE” (The Regents of the University of Michigan, priority 2015, published 2022).
Values joined by “and” are separate entries in the source; they are usually repeats but may differ in a detail not shown here. Equal values may be shown once. Where a name gives a salt, the structure may show the parent alone. Read-outs that look alike come from different tables or passages of the source.

Assay: Food and acidic beverage effect on bioavailability of ATR-101 tablets, 3-way crossover plasma PK study
Assay type: in vivo, human
Details: for kel: in h-1; for AUC0-t Ratio C/A: fasting with acidic beverage vs fasting with water; for AUC0-t Ratio B/C: fed with water vs fasting with acidic beverage; for AUC0-t Ratio B/A: fed with water vs fasting with water
Protocol: To evaluate the effects of food and of an acidic beverage on bioavailability of ATR-101 tablets prepared according to Example 2 (see Table 2), an open-label, randomized, 3-period, 3-way crossover, 3-sequence study was carried out with fourteen healthy, adult, non-tobacco using male and female (non-childbearing potential only) human subjects.
Three different treatments A, B, and C were administered as follows:
Treatment A: 500 mg ATR-101 (1×500 mg tablet) administered with water at Hour 0 on Day 1 following an overnight fast.
Treatment B: 500 mg ATR-101 (1×500 mg tablet) administered with water at Hour 0, 30 minutes after the start of a high-fat breakfast, on Day 1.
Treatment C: 500 mg ATR-101 (1×500 mg tablet) administered with Coca-Cola® Classic at Hour 0 on Day 1 following an overnight fast.
On Day 1 of Period 1, subjects were randomized to one of 3 treatment sequences: ABC, BCA, or CBA. For Treatments A and B, ATR-101 was administered orally with approximately 240 mL of water. For Treatment C, ATR-101 was administered orally with approximately 240 mL of Coca-Cola® Classic. Water (except water provided with dosing for Treatments A and B) was restricted 1 hour prior to and 1 hour after each study drug administration, but was allowed ad libitum at all other times. Other fluids were given as part of the standard meals (including the breakfast administered prior to study drug dosing for Treatment B) and/or snacks, but were restricted at all other times (except for the Coca-Cola® Classic beverage provided with dosing in Treatment C) throughout the confinement period.
For Treatments A and C, subjects fasted overnight for at least 10 hours prior to study drug administration and continued the fast for at least 4 hours post-dose.
For Treatment B, subjects were required to fast overnight for at least 10 hours until 30 minutes prior to study drug administration, when they were given breakfast which was entirely consumed within 30 minutes. A representative breakfast includes 2 slices of buttered toast, 2 fried eggs, 2 strips of bacon, 4 oz of hash brown potatoes, and 240 mL of whole milk.
On Day 1 of each period, a standard lunch and dinner was provided at approximately 4 and 9 hours post-dose, respectively, and a snack was also offered at approximately 12 hours post-dose. On other days when confined in the CRU, standard meals and/or snacks were provided at appropriate times. When confined, subjects were required to fast from all food and drink except water between meals and snacks served at the clinical research unit.
Each meal and/or snack served at the clinical research unit was standardized and was similar in caloric content and composition (except for the meal served as part of Treatment B) and was taken at approximately the same time in each period.
For all subjects, blood samples for the determination of ATR-101 plasma concentration were collected at pre-dose and 0.5, 1, 1.5, 2, 2.5, 3, 3.5, 4, 5, 6, 8, 12, 16, 24, 36, and 48 hours post-dose. PK parameters for plasma ATR-101 were calculated as follows: • AUC0-t: The area under the plasma concentration-time curve, from time 0 to the last measurable non-zero concentration, was calculated by the linear trapezoidal method. • AUC0-inf: The area under the plasma concentration-time curve from time 0 extrapolated to infinity. AUC0-inf was calculated as the sum of AUC0-t plus the ratio of the last measurable plasma concentration to the elimination rate constant. • AUC%extrap: Percent of AUC0-inf extrapolated, represented as
[formula] • Cmax: Maximum observed concentration. • tmax: Time to reach Cmax. If the maximum value occurred at more than one time point, tmax was defined as the first time point with this value. • ke1: Apparent first-order terminal elimination rate constant calculated from a semi-log plot of the plasma concentration versus time curve. […]

[1] = Treatment C (fasting with acidic beverage), single oral 500 mg, Minimum
[2] = Treatment C (fasting with acidic beverage, Coca-Cola Classic), single oral 500 mg, individual subject, hydrochloride
[3] = individual subject, hydrochloride

tmax [1]: 1.50 h
kel [1]: 0.0249
AUC0-inf (both sexes, human, plasma, po, 500 mg, Treatment A (fasting with water), single oral 500 mg, Geometric Mean, read-out: AUC0-inf): 3480 ng·h/mL
AUC0-t (both sexes, human, plasma, po, 500 mg, Treatment A (fasting with water), single oral 500 mg, Geometric Mean, read-out: AUC0-t): 2710 ng·h/mL
Cmax (both sexes, human, plasma, po, 500 mg, Treatment A (fasting with water), single oral 500 mg, Geometric Mean, read-out: Cmax): 469 ng/mL
half-life (both sexes, human, plasma, po, 500 mg, Treatment A (fasting with water), single oral 500 mg, Mean): 17.9 h
AUC0-inf (both sexes, human, plasma, po, 500 mg, Treatment A (fasting with water), single oral 500 mg, Mean, read-out: AUC0-inf): 3620 ng·h/mL
AUC0-t (both sexes, human, plasma, po, 500 mg, Treatment A (fasting with water), single oral 500 mg, Mean, read-out: AUC0-t): 2970 ng·h/mL
Cmax (both sexes, human, plasma, po, 500 mg, Treatment A (fasting with water), single oral 500 mg, Mean, read-out: Cmax): 575 ng/mL
half-life (both sexes, human, plasma, po, 500 mg, Treatment A (fasting with water), single oral 500 mg, Median): 18.2 h
AUC0-inf (both sexes, human, plasma, po, 500 mg, Treatment A (fasting with water), single oral 500 mg, Median, read-out: AUC0-inf): 3400 ng·h/mL
AUC0-t (both sexes, human, plasma, po, 500 mg, Treatment A (fasting with water), single oral 500 mg, Median, read-out: AUC0-t): 2620 ng·h/mL
Cmax (both sexes, human, plasma, po, 500 mg, Treatment A (fasting with water), single oral 500 mg, Median, read-out: Cmax): 542 ng/mL
tmax (both sexes, human, plasma, po, 500 mg, Treatment A (fasting with water), single oral 500 mg, Median, read-out: tmax): 2 h
AUC0-inf (both sexes, human, plasma, po, 500 mg, Treatment B (fed with water), single oral 500 mg, Geometric Mean, read-out: AUC0-inf): 6740 ng·h/mL
AUC0-t (both sexes, human, plasma, po, 500 mg, Treatment B (fed with water), single oral 500 mg, Geometric Mean, read-out: AUC0-t): 6200 ng·h/mL
Cmax (both sexes, human, plasma, po, 500 mg, Treatment B (fed with water), single oral 500 mg, Geometric Mean, read-out: Cmax): 1180 ng/mL
half-life (both sexes, human, plasma, po, 500 mg, Treatment B (fed with water), single oral 500 mg, Mean): 20.4 h
AUC0-inf (both sexes, human, plasma, po, 500 mg, Treatment B (fed with water), single oral 500 mg, Mean, read-out: AUC0-inf): 7130 ng·h/mL
AUC0-t (both sexes, human, plasma, po, 500 mg, Treatment B (fed with water), single oral 500 mg, Mean, read-out: AUC0-t): 6560 ng·h/mL
Cmax (both sexes, human, plasma, po, 500 mg, Treatment B (fed with water), single oral 500 mg, Mean, read-out: Cmax): 1250 ng/mL
half-life (both sexes, human, plasma, po, 500 mg, Treatment B (fed with water), single oral 500 mg, Median): 18.9 h
AUC0-inf (both sexes, human, plasma, po, 500 mg, Treatment B (fed with water), single oral 500 mg, Median, read-out: AUC0-inf): 6810 ng·h/mL
AUC0-t (both sexes, human, plasma, po, 500 mg, Treatment B (fed with water), single oral 500 mg, Median, read-out: AUC0-t): 6110 ng·h/mL
Cmax (both sexes, human, plasma, po, 500 mg, Treatment B (fed with water), single oral 500 mg, Median, read-out: Cmax): 1150 ng/mL
tmax (both sexes, human, plasma, po, 500 mg, Treatment B (fed with water), single oral 500 mg, Median, read-out: tmax): 2.75 h
AUC0-inf (both sexes, human, plasma, po, 500 mg, Treatment C (fasting with acidic beverage), single oral 500 mg, Geometric Mean, read-out: AUC0-inf): 3720 ng·h/mL
AUC0-t (both sexes, human, plasma, po, 500 mg, Treatment C (fasting with acidic beverage), single oral 500 mg, Geometric Mean, read-out: AUC0-t): 3340 ng·h/mL
Cmax (both sexes, human, plasma, po, 500 mg, Treatment C (fasting with acidic beverage), single oral 500 mg, Geometric Mean, read-out: Cmax): 558 ng/mL
half-life (both sexes, human, plasma, po, 500 mg, Treatment C (fasting with acidic beverage), single oral 500 mg, Mean): 19.5 h
AUC0-inf (both sexes, human, plasma, po, 500 mg, Treatment C (fasting with acidic beverage), single oral 500 mg, Mean, read-out: AUC0-inf): 4240 ng·h/mL
AUC0-t (both sexes, human, plasma, po, 500 mg, Treatment C (fasting with acidic beverage), single oral 500 mg, Mean, read-out: AUC0-t): 3830 ng·h/mL
Cmax (both sexes, human, plasma, po, 500 mg, Treatment C (fasting with acidic beverage), single oral 500 mg, Mean, read-out: Cmax): 728 ng/mL
half-life (both sexes, human, plasma, po, 500 mg, Treatment C (fasting with acidic beverage), single oral 500 mg, Median): 18.4 h
AUC0-inf (both sexes, human, plasma, po, 500 mg, Treatment C (fasting with acidic beverage), single oral 500 mg, Median, read-out: AUC0-inf): 4260 ng·h/mL
AUC0-t (both sexes, human, plasma, po, 500 mg, Treatment C (fasting with acidic beverage), single oral 500 mg, Median, read-out: AUC0-t): 3800 ng·h/mL
Cmax (both sexes, human, plasma, po, 500 mg, Treatment C (fasting with acidic beverage), single oral 500 mg, Median, read-out: Cmax): 666 ng/mL
tmax (both sexes, human, plasma, po, 500 mg, Treatment C (fasting with acidic beverage), single oral 500 mg, Median, read-out: tmax): 2 h
AUC0-t Ratio C/A (Geometric Mean): 126%
AUC0-t Ratio C/A (Maximum): 588%
AUC0-t Ratio C/A (Mean): 160%
AUC0-t Ratio C/A (Median): 131%
AUC0-t Ratio C/A (Minimum): 23.3%
increase in systemic exposure (fed state (Treatment B) compared to fasting state with acidic beverage (Treatment C)): 108%
increase in systemic exposure (fed state (Treatment B) compared to fasting state with water (Treatment A)): 153%
AUC0-t Ratio B/C (Geometric Mean): 184%
AUC0-t Ratio B/C (Maximum): 615%
AUC0-t Ratio B/C (Mean): 208%
AUC0-t Ratio B/C (Median): 156%
AUC0-t Ratio B/C (Minimum): 83.2%
AUC0-t Ratio B/A (Geometric Mean): 233%
AUC0-t Ratio B/A (Maximum): 490%
AUC0-t Ratio B/A (Mean): 253%
AUC0-t Ratio B/A (Median): 211%
AUC0-t Ratio B/A (Minimum): 132%
Compound: CC(C)c1cccc(C(C)C)c1NC(=O)NCC1(c2ccc(N(C)C)cc2)CCCC1 [ATR-101, N-(2,6-bis(1-methylethyl)phenyl)-N′-((1-(4-(dimethylamino)-phenyl)cyclopentyl)methyl)urea hydrochloride]
AUC0-inf [2]: 728 and 3990 and 5760 and 2610 and 5420 and 4530 and 6970 and 2880 and 3670 and 2670 and 6680 and 5020
AUC0-t [2]: 572 and 5100 and 2510 and 4940 and 4110 and 6430 and 2360 and 3660 and 3400 and 2250 and 6310 and 4300
AUC% extrap [2]: 21.5% and 4.67% and 11.3% and 3.84% and 8.70% and 9.20% and 7.61% and 18.3% and 7.31% and 15.6% and 5.52% and 14.2%
Cmax [2]: 19.8 ng/mL and 734 ng/mL and 1030 ng/mL and 438 ng/mL and 948 ng/mL and 645 ng/mL and 952 ng/mL and 461 ng/mL and 602 ng/mL and 525 ng/mL and 1550 ng/mL and 893 ng/mL
t1/2 [2]: 17.5 h and 13.8 h and 8.2 h and 14.0 h and 18.7 h and 20.1 h and 7.9 h and 16.0 h and 26.9 h and 14.2 h and 27.1 h
tmax [2]: 6.00 h and 3.00 h and 1.50 h and 2.50 h
kel [2]: 0.0397 and 0.0501 and 0.0380 and 0.0496 and 0.0371 and 0.0345 and 0.0353 and 0.0249 and 0.0433 and 0.0258 and 0.0488 and 0.0256
AUC0-t Ratio C/A [3]: 23.3% and 120% and 134% and 101% and 588% and 187% and 132% and 155% and 89.3% and 130% and 143% and 111%
AUC0-t Ratio B/C [3]: 615% and 156% (2×) and 258% and 210% and 83.2% and 168% and 131% and 267% and 148% and 211% and 147% and 153%
AUC0-t Ratio B/A [3]: 144% and 187% and 346% and 212% and 490% and 313% and 173% and 292% and 415% and 132% and 203% and 211% and 169%
